Reference: ChEMBL document CHEMBL4507307 (2021)
Values belong to the molecule of their own block, whether it stands above or below them.

Key:
[1] = biological target: 5-hydroxytryptamine receptor 1A (Homo sapiens, UniProt P08908); assay: GPCRScan assay: inhibition of 5-HT1A; set-up: radioligand conc. used [nm] 0.5 – 1.0, parental cells stable CHO
[2] = biological target: 5-hydroxytryptamine receptor 1D (Homo sapiens, UniProt P28221); assay: GPCRScan assay: inhibition of 5-HT1D; set-up: radioligand conc. used [nm] 1.0 – 2.0, parental cells HEKT
[3] = biological target: D(2) dopamine receptor (Homo sapiens, UniProt P14416); assay: GPCRScan assay: inhibition of D2; set-up: radioligand conc. used [nm] 0.4 – 1.0, parental cells stable fibroblast
[4] = biological target: Kappa-type opioid receptor (Homo sapiens, UniProt P41145); assay: GPCRScan assay: inhibition of KOR; set-up: radioligand conc. used [nm] 0.6 – 1.2, parental cells stable HEK
Sequence of Kappa-type opioid receptor (P41145 whole entry): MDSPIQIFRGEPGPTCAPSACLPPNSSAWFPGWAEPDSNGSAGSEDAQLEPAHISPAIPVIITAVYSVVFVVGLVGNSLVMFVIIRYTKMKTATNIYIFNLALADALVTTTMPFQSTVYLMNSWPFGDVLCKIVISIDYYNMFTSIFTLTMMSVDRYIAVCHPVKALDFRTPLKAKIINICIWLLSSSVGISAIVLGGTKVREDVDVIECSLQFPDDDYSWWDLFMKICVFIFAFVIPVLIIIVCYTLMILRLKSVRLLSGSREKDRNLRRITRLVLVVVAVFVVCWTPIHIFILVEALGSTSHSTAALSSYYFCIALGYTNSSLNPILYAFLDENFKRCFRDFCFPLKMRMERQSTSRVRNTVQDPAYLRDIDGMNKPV

[5] = biological target: Alpha-1A adrenergic receptor (Homo sapiens, UniProt P35348); assay: GPCRScan assay: inhibition of Alpha1A; set-up: radioligand conc. used [nm] 0.2 - 1.0, parental cells stable HEK
Sequence of Alpha-1A adrenergic receptor (P35348 whole entry): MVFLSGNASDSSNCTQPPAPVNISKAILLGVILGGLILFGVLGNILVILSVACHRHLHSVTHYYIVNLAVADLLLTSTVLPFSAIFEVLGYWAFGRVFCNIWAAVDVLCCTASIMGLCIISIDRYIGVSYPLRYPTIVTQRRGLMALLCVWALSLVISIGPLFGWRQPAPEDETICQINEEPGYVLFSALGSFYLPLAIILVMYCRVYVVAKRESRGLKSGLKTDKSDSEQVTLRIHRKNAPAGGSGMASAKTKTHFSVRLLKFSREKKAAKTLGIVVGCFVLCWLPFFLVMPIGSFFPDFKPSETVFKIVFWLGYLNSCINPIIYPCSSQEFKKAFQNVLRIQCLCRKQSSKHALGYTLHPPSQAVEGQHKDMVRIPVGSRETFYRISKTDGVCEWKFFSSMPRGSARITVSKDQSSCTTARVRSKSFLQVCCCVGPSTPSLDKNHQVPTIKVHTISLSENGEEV

[6] = biological target: Alpha-1B adrenergic receptor (Homo sapiens, UniProt P35368); assay: GPCRScan assay: inhibition of Alpha1B; set-up: radioligand conc. used [nm] 0.3 – 1.0, parental cells stable HEK
[7] = biological target: Alpha-2A adrenergic receptor (Homo sapiens, UniProt P08913); assay: GPCRScan assay: inhibition of Alpha2A; set-up: radioligand conc. used [nm] 1.0 – 3.0, parental cells stable MDCK
[8] = biological target: Alpha-2C adrenergic receptor (Homo sapiens, UniProt P18825); assay: GPCRScan assay: inhibition of Alpha2C; set-up: radioligand conc. used [nm] 0.5 – 1.0, parental cells stable MDCK
[9] = biological target: Beta-3 adrenergic receptor (Homo sapiens, UniProt P13945); assay: GPCRScan assay: inhibition of Beta3; set-up: radioligand conc. used [nm] 0.2 – 0.5, parental cells HEK Flp-In
Sequence of Beta-3 adrenergic receptor (P13945 whole entry): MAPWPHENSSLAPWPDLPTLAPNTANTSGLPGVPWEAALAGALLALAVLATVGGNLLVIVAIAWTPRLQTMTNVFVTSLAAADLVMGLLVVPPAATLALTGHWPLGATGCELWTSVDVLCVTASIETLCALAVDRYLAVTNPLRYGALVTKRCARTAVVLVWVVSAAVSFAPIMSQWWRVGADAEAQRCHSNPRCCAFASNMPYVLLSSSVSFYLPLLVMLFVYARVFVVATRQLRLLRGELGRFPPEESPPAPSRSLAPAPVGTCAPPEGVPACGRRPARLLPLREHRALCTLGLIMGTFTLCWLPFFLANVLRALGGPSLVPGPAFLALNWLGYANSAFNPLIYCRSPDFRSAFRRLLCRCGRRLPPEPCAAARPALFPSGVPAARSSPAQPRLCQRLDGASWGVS

[10] = biological target: Alpha-1D adrenergic receptor (Homo sapiens, UniProt P25100); assay: GPCRScan assay: inhibition of Alpha1D; set-up: radioligand conc. used [nm] 0.3 – 1.0, parental cells stable
[11] = biological target: Sigma intracellular receptor 2 (Homo sapiens, UniProt Q5BJF2); assay: GPCRScan assay: inhibition of Sigma 2; set-up: radioligand conc. used [nm] 5.0, parental cells HEKT
[12] = biological target: Dual specificity protein kinase CLK2 (Homo sapiens, UniProt P49760); assay: NanoBRET (SGC Frankfurt) (CLK2)
[13] = biological target: Sodium-dependent noradrenaline transporter (Homo sapiens) (UniProt P23975); conditions: Compound concentration 10.0 uM
[14] = biological target: Delta-type opioid receptor (Homo sapiens) (UniProt P41143); conditions: Compound concentration 10.0 uM
[15] = biological target: Beta-2 adrenergic receptor (Homo sapiens) (UniProt P07550); conditions: Compound concentration 10.0 uM
[16] = biological target: Muscarinic acetylcholine receptor M1 (Homo sapiens) (UniProt P11229); conditions: Compound concentration 10.0 uM
[17] = biological target: Alpha-1D adrenergic receptor (Homo sapiens) (UniProt P25100); conditions: Compound concentration 10.0 uM
[18] = biological target: Dual specificity tyrosine-phosphorylation-regulated kinase 1B (Homo sapiens, UniProt Q9Y463); assay: DYRK1B Kinase activity screen
[19] = biological target: Dual specificity tyrosine-phosphorylation-regulated kinase 3 (Homo sapiens) (UniProt O43781); assay: DYRK3 Kinase activity screen
[20] = biological target: SRSF protein kinase 1 (Homo sapiens) (UniProt Q96SB4); assay: SRPK1 Kinase activity screen
[21] = biological target: Tyrosine-protein kinase ABL1 (Homo sapiens) (UniProt P00519); assay: ABL1 Kinase activity screen
[22] = biological target: Aurora kinase B (Homo sapiens) (UniProt Q96GD4); assay: AURKB (Aurora B) Kinase activity screen
[23] = biological target: Serine/threonine-protein kinase B-raf (Homo sapiens) (UniProt P15056); assay: BRAF Kinase activity screen
Sequence of Serine/threonine-protein kinase B-raf (Homo sapiens) (P15056 whole entry): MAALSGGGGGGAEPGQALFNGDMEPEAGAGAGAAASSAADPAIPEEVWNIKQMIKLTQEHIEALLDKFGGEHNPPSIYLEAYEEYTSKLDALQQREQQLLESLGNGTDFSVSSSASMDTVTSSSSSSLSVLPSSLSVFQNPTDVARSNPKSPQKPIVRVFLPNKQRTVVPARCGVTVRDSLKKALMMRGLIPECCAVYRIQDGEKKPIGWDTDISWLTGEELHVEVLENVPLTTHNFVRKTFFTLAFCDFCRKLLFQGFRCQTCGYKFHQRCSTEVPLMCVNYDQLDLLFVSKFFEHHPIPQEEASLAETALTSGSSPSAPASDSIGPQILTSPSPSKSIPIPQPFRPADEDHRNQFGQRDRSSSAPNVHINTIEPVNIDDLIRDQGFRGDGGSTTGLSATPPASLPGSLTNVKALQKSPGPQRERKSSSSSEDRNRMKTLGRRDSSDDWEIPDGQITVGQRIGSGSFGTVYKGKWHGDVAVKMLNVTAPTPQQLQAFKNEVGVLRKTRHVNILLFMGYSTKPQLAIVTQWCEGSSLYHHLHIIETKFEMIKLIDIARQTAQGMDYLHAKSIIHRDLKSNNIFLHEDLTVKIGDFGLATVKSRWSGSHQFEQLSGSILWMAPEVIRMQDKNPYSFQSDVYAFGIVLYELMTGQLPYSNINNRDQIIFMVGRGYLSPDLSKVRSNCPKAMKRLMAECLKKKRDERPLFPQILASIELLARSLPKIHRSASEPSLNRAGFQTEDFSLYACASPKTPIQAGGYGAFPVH

[24] = biological target: CDK2/Cyclin A2 (Homo sapiens) (UniProt P24941+P20248); assay: CDK2/cyclin A Kinase activity screen; type: protein-complex assay
[25] = biological target: Cyclin-dependent kinase 5/CDK5 activator 1 (Homo sapiens) (UniProt Q00535+Q15078); assay: CDK5/p35 Kinase activity screen; type: protein-complex assay
Sequence of Cyclin-dependent kinase 5/CDK5 activator 1 (Homo sapiens) (Q00535 whole entry): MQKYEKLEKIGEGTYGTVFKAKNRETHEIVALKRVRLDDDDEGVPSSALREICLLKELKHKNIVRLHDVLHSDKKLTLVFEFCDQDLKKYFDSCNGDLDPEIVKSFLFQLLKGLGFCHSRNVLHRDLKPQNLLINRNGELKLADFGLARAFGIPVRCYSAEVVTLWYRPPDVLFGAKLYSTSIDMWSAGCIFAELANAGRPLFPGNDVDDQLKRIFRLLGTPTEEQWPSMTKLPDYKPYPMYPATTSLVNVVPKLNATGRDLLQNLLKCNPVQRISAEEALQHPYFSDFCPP
Sequence of Cyclin-dependent kinase 5/CDK5 activator 1 (Homo sapiens) (Q15078 99-307 partner limits assumed): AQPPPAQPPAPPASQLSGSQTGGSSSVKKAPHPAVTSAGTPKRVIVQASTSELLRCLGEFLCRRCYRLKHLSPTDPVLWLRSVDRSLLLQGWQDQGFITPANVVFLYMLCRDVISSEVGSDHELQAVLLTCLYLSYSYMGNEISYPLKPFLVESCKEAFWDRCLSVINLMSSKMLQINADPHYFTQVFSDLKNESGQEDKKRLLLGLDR

[26] = biological target: Ephrin type-A receptor 1 (Homo sapiens) (UniProt P21709); assay: EPHA1 Kinase activity screen
[27] = biological target: Ephrin type-A receptor 2 (Homo sapiens) (UniProt P29317); assay: EPHA2 Kinase activity screen
Sequence of Ephrin type-A receptor 2 (Homo sapiens) (P29317 whole entry): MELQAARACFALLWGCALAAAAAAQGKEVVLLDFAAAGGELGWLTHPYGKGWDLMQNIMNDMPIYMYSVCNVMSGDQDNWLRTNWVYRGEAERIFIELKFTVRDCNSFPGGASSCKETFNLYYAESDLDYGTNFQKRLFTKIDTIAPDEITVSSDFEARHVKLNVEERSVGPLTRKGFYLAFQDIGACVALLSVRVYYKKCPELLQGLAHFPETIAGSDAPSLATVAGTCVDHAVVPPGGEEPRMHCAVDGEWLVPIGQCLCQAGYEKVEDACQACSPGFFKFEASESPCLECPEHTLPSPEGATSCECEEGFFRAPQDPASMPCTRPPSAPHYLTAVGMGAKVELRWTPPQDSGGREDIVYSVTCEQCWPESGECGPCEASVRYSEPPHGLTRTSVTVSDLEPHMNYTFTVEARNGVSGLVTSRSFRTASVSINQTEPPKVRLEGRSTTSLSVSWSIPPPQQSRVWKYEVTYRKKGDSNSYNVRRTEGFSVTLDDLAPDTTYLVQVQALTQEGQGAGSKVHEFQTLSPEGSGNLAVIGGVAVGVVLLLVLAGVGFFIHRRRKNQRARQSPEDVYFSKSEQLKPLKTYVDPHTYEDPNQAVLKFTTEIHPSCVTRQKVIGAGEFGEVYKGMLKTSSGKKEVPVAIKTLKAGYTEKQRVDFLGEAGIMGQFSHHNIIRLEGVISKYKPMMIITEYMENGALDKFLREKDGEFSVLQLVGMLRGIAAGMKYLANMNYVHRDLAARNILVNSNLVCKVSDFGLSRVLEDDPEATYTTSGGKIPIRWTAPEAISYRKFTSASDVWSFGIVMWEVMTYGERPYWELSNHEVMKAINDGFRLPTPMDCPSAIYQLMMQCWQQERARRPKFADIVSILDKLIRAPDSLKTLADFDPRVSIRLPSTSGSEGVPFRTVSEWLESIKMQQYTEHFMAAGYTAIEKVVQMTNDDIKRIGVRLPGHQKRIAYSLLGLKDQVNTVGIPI

[28] = biological target: Ephrin type-A receptor 5 (Homo sapiens) (UniProt P54756); assay: EPHA5 Kinase activity screen
[29] = biological target: Serine/threonine-protein kinase mTOR (Homo sapiens) (UniProt P42345); assay: FRAP1 (mTOR) Kinase activity screen
[30] = biological target: Homeodomain-interacting protein kinase 2 (Homo sapiens) (UniProt Q9H2X6); assay: HIPK2 Kinase activity screen
[31] = biological target: Interleukin-1 receptor-associated kinase 4 (Homo sapiens) (UniProt Q9NWZ3); assay: IRAK4 Kinase activity screen
[32] = biological target: Mast/stem cell growth factor receptor Kit (Homo sapiens) (UniProt P10721); assay: KIT Kinase activity screen
Sequence of Mast/stem cell growth factor receptor Kit (Homo sapiens) (P10721 whole entry): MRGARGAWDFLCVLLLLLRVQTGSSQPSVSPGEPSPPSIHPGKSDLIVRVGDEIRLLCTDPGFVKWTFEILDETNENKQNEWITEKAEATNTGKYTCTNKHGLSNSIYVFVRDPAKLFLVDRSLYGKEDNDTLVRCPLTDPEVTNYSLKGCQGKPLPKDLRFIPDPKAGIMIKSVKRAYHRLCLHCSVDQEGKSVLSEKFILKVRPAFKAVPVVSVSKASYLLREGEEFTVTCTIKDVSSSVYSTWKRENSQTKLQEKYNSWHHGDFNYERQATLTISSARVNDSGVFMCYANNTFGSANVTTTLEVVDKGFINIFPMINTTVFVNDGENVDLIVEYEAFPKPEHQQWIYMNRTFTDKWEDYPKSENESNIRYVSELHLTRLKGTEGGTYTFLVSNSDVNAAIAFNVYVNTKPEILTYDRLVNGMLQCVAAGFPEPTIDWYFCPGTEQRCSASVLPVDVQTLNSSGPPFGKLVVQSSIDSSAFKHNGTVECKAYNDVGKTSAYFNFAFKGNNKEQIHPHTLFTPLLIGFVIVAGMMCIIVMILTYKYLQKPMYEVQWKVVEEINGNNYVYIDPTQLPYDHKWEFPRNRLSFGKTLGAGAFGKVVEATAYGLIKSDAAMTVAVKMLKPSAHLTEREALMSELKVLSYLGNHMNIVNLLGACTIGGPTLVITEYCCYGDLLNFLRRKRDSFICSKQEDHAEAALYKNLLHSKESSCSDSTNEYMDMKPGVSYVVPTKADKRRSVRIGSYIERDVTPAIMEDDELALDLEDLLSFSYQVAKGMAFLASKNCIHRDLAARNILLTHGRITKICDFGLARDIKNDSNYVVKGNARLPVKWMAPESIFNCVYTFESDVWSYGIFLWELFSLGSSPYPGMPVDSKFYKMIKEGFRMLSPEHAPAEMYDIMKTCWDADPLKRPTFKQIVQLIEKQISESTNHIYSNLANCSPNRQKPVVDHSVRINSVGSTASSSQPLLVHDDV

[33] = biological target: Dual specificity mitogen-activated protein kinase kinase 1 (Homo sapiens) (UniProt Q02750); assay: MAP2K1 (MEK1) Kinase activity screen
Sequence of Dual specificity mitogen-activated protein kinase kinase 1 (Homo sapiens) (Q02750 whole entry): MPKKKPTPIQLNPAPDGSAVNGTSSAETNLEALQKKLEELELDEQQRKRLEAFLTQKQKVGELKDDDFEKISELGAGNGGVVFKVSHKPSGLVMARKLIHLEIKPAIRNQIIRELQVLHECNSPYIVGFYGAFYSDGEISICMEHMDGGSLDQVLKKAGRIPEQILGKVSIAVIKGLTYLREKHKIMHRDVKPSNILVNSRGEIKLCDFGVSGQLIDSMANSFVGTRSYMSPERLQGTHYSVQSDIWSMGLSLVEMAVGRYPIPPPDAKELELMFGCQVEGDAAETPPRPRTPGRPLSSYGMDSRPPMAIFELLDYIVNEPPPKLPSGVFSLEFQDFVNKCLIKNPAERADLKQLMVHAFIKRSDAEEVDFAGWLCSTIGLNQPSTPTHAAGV

[34] = biological target: Mitogen-activated protein kinase 14 (Homo sapiens) (UniProt Q16539); assay: MAPK14 (p38 alpha) Kinase activity screen
[35] = biological target: Mitogen-activated protein kinase 9 (Homo sapiens) (UniProt P45984); assay: MAPK9 (JNK2) Kinase activity screen
[36] = biological target: Serine/threonine-protein kinase Nek1 (Homo sapiens) (UniProt Q96PY6); assay: NEK1 Kinase activity screen
[37] = biological target: Serine/threonine-protein kinase PLK1 (Homo sapiens) (UniProt P53350); assay: PLK1 Kinase activity screen
[38] = biological target: cAMP-dependent protein kinase catalytic subunit alpha (Homo sapiens) (UniProt P17612); assay: PRKACA (PKA) Kinase activity screen
[39] = biological target: Protein kinase C theta type (Homo sapiens) (UniProt Q04759); assay: PRKCQ (PKC theta) Kinase activity screen
[40] = biological target: Proto-oncogene tyrosine-protein kinase receptor Ret (Homo sapiens) (UniProt P07949); assay: RET Kinase activity screen
[41] = biological target: Proto-oncogene tyrosine-protein kinase Src (Homo sapiens) (UniProt P12931); assay: SRC Kinase activity screen
[42] = biological target: Angiopoietin-1 receptor (Homo sapiens) (UniProt Q02763); assay: TEK (Tie2) Kinase activity screen
[43] = Compound concentration 0.123 uM

Ki [1]: 2560 nM
Ki ([2]; read-out: Ki): 3070 nM
Ki ([2]; read-out: pKi (converted)): 2820 nM
Ki ([3]; read-out: Ki): 2750 nM
Ki ([3]; read-out: pKi (converted)): 2340 nM
Ki ([4]; read-out: Ki): 990 nM
Ki ([4]; read-out: pKi (converted)): 977 nM
Ki ([5]; read-out: Ki): 1390 nM
Ki ([5]; read-out: pKi (converted)): 1350 nM
Ki ([6]; read-out: Ki): 5530 nM
Ki ([6]; read-out: pKi (converted)): 5370 nM
Ki [7]: 2660 nM
Ki [8]: > 10000 nM
pKi [8]: < 5
Ki [9]: > 10000 nM
pKi [9]: < 5
Ki [10]: 1450 nM
Ki [11]: 412 nM
IC50 [12]: > 10000 nM (not active)
inhibition [13]: 40.8%
inhibition [14]: 46.2%
inhibition [15]: 17.2%
inhibition [16]: 68.3%
inhibition [17]: 57%
Structure (SMILES): CN1CCN(C(=O)C(C)(C)c2ccc(C(=O)Nc3cn4cc(-c5cc(C(C)(C)C)cc(C(C)(C)C)c5)ccc4n3)cc2)CC1 [T3-CLK-N]

inhibition [18, 43]: 62.7%
inhibition ([18]; Compound concentration 1.11 uM): 94.1%
inhibition [19, 43]: -1.82%
inhibition ([19]; Compound concentration 1.11 uM): 3.7%
inhibition [20, 43]: -3.09%
inhibition ([20]; Compound concentration 1.11 uM): -2.58%
inhibition ([21]; Compound concentration 0.1 uM): 10.1%
inhibition ([21]; Compound concentration 1.0 uM): 55.7%
inhibition ([22]; Compound concentration 0.1 uM): 6.77%
inhibition ([22]; Compound concentration 1.0 uM): 16.1%
inhibition ([23]; Compound concentration 0.1 uM): 8.71%
inhibition ([23]; Compound concentration 1.0 uM): 17.2%
inhibition ([24]; Compound concentration 0.1 uM): 0.334%
inhibition ([24]; Compound concentration 1.0 uM): 3.32%
inhibition ([25]; Compound concentration 0.1 uM): 1.85%
inhibition ([25]; Compound concentration 1.0 uM): -1.12%
inhibition ([26]; Compound concentration 0.1 uM): -1.64%
inhibition ([26]; Compound concentration 1.0 uM): -0.564%
inhibition ([27]; Compound concentration 0.1 uM): -4.09%
inhibition ([27]; Compound concentration 1.0 uM): -6.26%
inhibition ([28]; Compound concentration 0.1 uM): -5.79%
inhibition ([28]; Compound concentration 1.0 uM): -4.96%
inhibition ([29]; Compound concentration 0.1 uM): -5.58%
inhibition ([29]; Compound concentration 1.0 uM): -8.53%
inhibition ([30]; Compound concentration 0.1 uM): -3.6%
inhibition ([30]; Compound concentration 1.0 uM): -1.82%
inhibition ([31]; Compound concentration 0.1 uM): 25.3%
inhibition ([31]; Compound concentration 1.0 uM): 42.4%
inhibition ([32]; Compound concentration 0.1 uM): 11%
inhibition ([32]; Compound concentration 1.0 uM): 37.5%
inhibition ([33]; Compound concentration 0.1 uM): 12.4%
inhibition ([33]; Compound concentration 1.0 uM): 10.9%
inhibition ([34]; Compound concentration 0.1 uM): 4.88%
inhibition ([34]; Compound concentration 1.0 uM): 6.39%
inhibition ([35]; Compound concentration 0.1 uM): 3.18%
inhibition ([35]; Compound concentration 1.0 uM): -1.48%
inhibition ([36]; Compound concentration 0.1 uM): 3.86%
inhibition ([36]; Compound concentration 1.0 uM): 25.1%
inhibition ([37]; Compound concentration 0.1 uM): 7.85%
inhibition ([37]; Compound concentration 1.0 uM): 2.48%
inhibition ([38]; Compound concentration 0.1 uM): -1.57%
inhibition ([38]; Compound concentration 1.0 uM): 3.62%
inhibition ([39]; Compound concentration 0.1 uM): 5.46%
inhibition ([39]; Compound concentration 1.0 uM): 4.24%
inhibition ([40]; Compound concentration 0.1 uM): -1.05%
inhibition ([40]; Compound concentration 1.0 uM): -2.43%
inhibition ([41]; Compound concentration 0.1 uM): 13.2%
inhibition ([41]; Compound concentration 1.0 uM): 46.7%
inhibition ([42]; Compound concentration 0.1 uM): 0.108%
inhibition ([42]; Compound concentration 1.0 uM): -0.329%
inhibition [13]: 5.3%
inhibition [14]: 4.05%
inhibition [15]: 16.6%
Structure (SMILES): CN1CCN(C(=O)C(C)(C)c2ccc(C(=O)Nc3cn4cc(-c5ccncc5)ccc4n3)cc2)CC1 [T3-CLK]
